Test results reported in patent US7790947B2 (priority 2001, dated 2010).

Key:
hemoglobin = hemoglobin (Homo sapiens, UniProt P68871); settings: cited from earlier work
TSS-1 production = test: Inhibition of TSS-1 production by salt or acid residue in absorbent foam; type: cell-based, S. aureus; settings: residual salt or acid in dried foam, between 0.1% and 10% weight percent of foam
[1] = tested on: TSST-1 toxin production by S. aureus; settings: cited from earlier work
TSST-1 toxin = TSST-1 toxin (Staphylococcus aureus, UniProt P06886); settings: mechanism unknown; cited from earlier work
TSST-1 toxin, sequence (P06886 41-234 limits assumed): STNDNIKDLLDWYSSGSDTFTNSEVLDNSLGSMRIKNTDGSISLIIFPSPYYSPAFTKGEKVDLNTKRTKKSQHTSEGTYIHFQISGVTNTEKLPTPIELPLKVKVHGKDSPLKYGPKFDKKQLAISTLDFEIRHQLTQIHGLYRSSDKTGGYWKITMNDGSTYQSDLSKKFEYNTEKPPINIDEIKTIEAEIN

hemoglobin, sequence (P68871 2-147 limits assumed): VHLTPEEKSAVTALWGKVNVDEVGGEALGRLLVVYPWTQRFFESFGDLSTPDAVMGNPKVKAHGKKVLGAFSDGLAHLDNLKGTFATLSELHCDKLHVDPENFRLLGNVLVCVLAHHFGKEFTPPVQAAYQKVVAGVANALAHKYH
hemoglobin, sequence (P69905 2-142 partner limits assumed): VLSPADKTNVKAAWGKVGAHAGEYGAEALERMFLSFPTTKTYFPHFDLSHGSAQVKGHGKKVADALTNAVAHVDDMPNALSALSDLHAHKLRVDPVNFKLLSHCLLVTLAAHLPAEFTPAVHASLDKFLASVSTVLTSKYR

Row | Compound | inhibition of TSS-1 production (TSS-1 production) | effect on toxin (TSST-1) production by S. aureus [1] | other results
1 | O=C(O)C(COP(=O)(O)O)OP(=O)(O)O (stereo not drawn) [BPG, 2,3-bisphosphoglycerate] |  |  | lowering of the affinity of oxygen for hemoglobin (factor) (hemoglobin): 26
2 | [Ca+2].[Cl-].[Cl-] [CaCl2] | inhibit TSS-1 production |  | 
3 | [Cl-].[Cl-].[Mg+2] [MgCl2] | inhibit TSS-1 production |  | 
4 | O=C1O[C@H]([C@@H](O)CO)C(O)=C1O [ascorbic acid] | inhibit TSS-1 production | reduce toxin production and/or deactiviate the toxin TSST-1 | deactivation of the toxin (TSST-1 toxin): deactivates the toxin
5 | OCC(O)CO [glycerol] |  | reduce toxin production and/or deactiviate the toxin TSST-1 | 
6 | O=C1O[C@H]([C@@H](O)CO)C([O-])=C1O.[Na+] [sodium ascorbate] | inhibit TSS-1 production |  | 
7 | tocopherol |  | reduce toxin production and/or deactiviate the toxin TSST-1 | 
